Reference: patent US20220175820A1 (PIERRE FABRE DERMO-COSMETIQUE, priority 2019, published 2022)
Marks after values point to notes of the source that are not given here.

Legend:
IL-8 = IL-8 production by stimulated normal human epidermal keratinocytes (atopic dermatitis model, ELISA); assay type: cell-based; conditions: bafilomycin 30 nM; stimulation by Poly I:C, PamC3, IL-4 and IL-13
Description: (§1) The study is performed on normal human epidermal keratinocytes cultured under standard conditions (37° C., 5% CO2). The culture medium is standard (keratinocyte-SFM supplemented with 0.25 ng/ml epidermal growth factor (EGF), 25 μg/ml pituitary extract and 25 μg/ml gentamycin). The test medium is the same without growth factor.
(§2) To simulate an atopic dermatitis environment, keratinocytes are preincubated for 1 hour in the medium with or without (control) the compounds to be tested, the vehicle (water) or the positive control, bafilomycin (macrolide family) at 30 nM. […] After this preincubation, keratinocytes are stimulated for 24 hours by a mixture of TLR ligands (Poly I:C and PamC3) and inflammatory cytokines (IL-4 and IL-13) added to the cells. An unstimulated control condition is also done at the same time. The cells are incubated for 24 hours.
(§3) The culture supernatants are collected, centrifuged and frozen at −80° C. TSLP and IL-8 are quantified by ELISA.
(§4) Three independent experiments are conducted. Statistical analysis is determined by one-way ANOVA followed by Dunnett's post-hoc test.

TSLP = TSLP production by stimulated normal human epidermal keratinocytes (atopic dermatitis model, ELISA); assay type: cell-based; conditions: bafilomycin 30 nM; stimulation by Poly I:C, PamC3, IL-4 and IL-13
Description: as §1, §2, §3, §4

[1] = test system: transcription factor NFκB; assay: NFκB activation stimulated by TNFα in HaCat keratinocytes with luciferase reporter gene; assay type: cell-based, human; conditions: dexamethasone 2 μM, TNFα 0.3 ng/ml
Description: The cell line used in this study is the HaCat line (human keratinocytes) stably transfected with the luciferase reporter gene.
These cells are cultured on 24-well plates under the same conditions as in Example 1. They are then preincubated for 60 minutes with the products to be tested, added to the culture medium in the form of a solution in water. A stimulant, TNFα (0.3 ng/ml, diluted in culture medium) is added to the cultures which are then incubated for 5 hours at 37° C. […] A positive control is used in this test, dexamethasone (synthetic glucocorticoid hormone, with an antiinflammatory and immunosuppressant effect, added to the culture medium in the form of a solution in water) tested at 2 μM in the culture medium. Note that 3 independent experiments were conducted. The Bright-Glo™ agent (which induces cell lysis and thus enables luciferase release) and its substrate (luciferin) are added before reading the luminescence. The raw data are analyzed by Excel. The intergroup comparison is performed by one-way ANOVA followed by Dunnett's post-hoc test.

Compound	Production of IL-8 at 24 h Mean (IL-8)	TSLP production at 24 h % Inh (TSLP)	TSLP production at 24 h Mean (TSLP)	inhibition at 2 µM ([1]; Homo sapiens, HaCaT, 5 h, read-out: NFκB activation % Inh)	NFκB activation % Inh ([1]; 5 hours)	NFκB activation RLU Mean ([1]; 5 hours)
CO/C1=C\C(C)=C\[C@@H](C)[C@@H](O)[C@@H](C)C/C(C)=C/C=C/[C@H](OC)[C@@H]([C@@H](C)[C@@H](O)[C@H](C)[C@@]2(O)C[C@@H](O)[C@H](C)[C@@H](C(C)C)O2)OC1=O [Bafilomycin, bafilomycin, reference compound]	26022 pg/mL	70* %	81 pg/mL			
C[C@@H]1C[C@H]2[C@@H]3CCC4=CC(=O)C=C[C@]4(C)[C@@]3(F)[C@@H](O)C[C@]2(C)[C@@]1(O)C(=O)CO [Dexa, dexamethasone, reference compound]				> 40%	41%	14206 RLU
